Measurements taken from patent US6383479B1, “Neutrophil-activating factor” (Novartis AG, priority 1987, dated 2002).

Assays:
Type in all cases: cell-based
human neutrophils [1] = assay: elastase release from human neutrophils pretreated with cytochalasin B (NAF activity); conditions: phosphocellulose fractions
Excerpt: Human monocytes are isolated from buffy coats of donor blood (Swiss Red Cross Laboratory, Bern, Switzerland) by centrifugation through a Ficoll-Paque gradient. This method separates neutrophils from the so-called mononuclear cells, a mixture of monocytes (about 20%) and lymphocytes (about 80%). Three monocyte preparations are used: (i) the total mononuclear cell fraction, (ii) monocytes enriched from the mononuclear cell fraction by adherence, and (iii) 90% pure monocytes separated from the lymphocytes by centrifugal elutriation (G. Garotta et al., Biochem. Biophys. Res. Comm. 140 [1986] 948-954 and K. J. Clemetson et al., J. Exp. Med. 161 [1985] 972-983). The cells are cultured in MEM-PPL and stimulated with increasing concentrations (0.1 ng to 1 μg/ml) of LPS. At different times, aliquots of the culture media are sampled and NAF activity is determined as the capacity to induce the release of elastase from human neutrophils pretreated with cytochalasin B (B. Dewald et al., Biochem. Pharmacol. 36 [1987] 2505-2510).
Mononuclear cells obtained from donor blood buffy coats as described in Example 1 are cultured in MEM-PPL for 48 h in the presence of 100 ng/ml LPS in stirred culture bottles (1.5 liter, 5×10^6 cells/ml). […] Absorbance at 280 nm is monitored continuously as a measure of protein. […]

human neutrophils [2] = assay: stimulus-dependent exocytosis of granule contents by human neutrophils
Protocol: Neutrophils (5×10^6/ml) suspended in PBS/BSA are preincubated with or without cytochalasin B (5 μg/ml) at 37° for 5 min.
Granule release is then initiated by adding the stimulus, e.g. NAF or a standard stimulus. The reaction is stopped 15 min later by rapid cooling in ice followed by centrifugation to sediment the cells. Vitamin B12-binding protein, β-glucuronidase and lactate dehydrogenase are determined in the cell-free media and cell pellets, and the release of these constituents is calculated in percent of the total cellular content (B. Dewalt and M. Baggiolini, Methods Enzymol. 132 [1986] 267).
(§1) Natural and recombinant NAF are tested in parallel on human neutrophils. They elicit virtually identical changes in cytosolic free Ca^2+, yielding a maximum rise at a concentration as low as 3 nM (FIG. 15). A nearly identical concentration-dependent respiratory burst response is obtained with both preparations in the range of 1 to 30 nM as assessed by chemiluminescence. The equivalence between natural and recombinant NAF is also reflected by chemotaxis and exocytosis measurements. Chemotactic migration is observed between 0.1 and 10 nM with a maximum effect at 1 nM. (Table 6). With either peptide a significant release of vitamin B12-binding protein from the specific granules at 0.3 nM and of beta-glucuronidase from the azurophil granules at 1 nM is observed.

human neutrophils [3] = assay: cytosolic free Ca2+ changes in quin-2 loaded human neutrophils; conditions: as low as
Protocol: Upper graphs: cytosolic free Ca^2+ changes induced by natural (left) and recombinant (right) NAF. Neutrophils (4×10^6 cells/ml) are loaded with 0.1 nmol quin-2/AM and then stimulated with 3 nM NAF (mark). Quin-2 saturation changes calibrated as described in V. Von Tscharner et al., J. Biol. Chem. 261 (1986) 10163-10168.
as §1

human neutrophils [4] = assay: NAF-induced neutrophil chemotaxis (leading front migration); conditions: for leading front migration: random migration 61 ± 5 μm
Protocol: as §1

Substance	elastase-releasing activity (human neutrophils [1])	concentration giving significant release of beta-glucuronidase from the azurophil granules (human neutrophils [2])	concentration giving significant release of vitamin B12-binding protein from the specific granules (human neutrophils [2])	concentration yielding a maximum rise in cytosolic free Ca2+ (human neutrophils [3])	concentration of maximum chemotactic effect (human neutrophils [4])	leading front migration (human neutrophils [4]; NAF 0.1 nM)	leading front migration (human neutrophils [4]; NAF 1.0 nM)	leading front migration (human neutrophils [4]; NAF 10.0 nM)
interleukin-1 [IL-1]	no elastase-releasing activity							
natural NAF: NAF purified from culture fluid of LPS-stimulated human monocytes		1 nM	0.3 nM	3 nM	1 nM	98 ± 6 μm	123 ± 6 μm	127 ± 3 μm
recombinant NAF: 72-amino-acid NAF obtained by recombinant DNA processes, expressed in E. coli		1 nM	0.3 nM	3 nM	1 nM	88 ± 6 μm	124 ± 3 μm	126 ± 4 μm
